Data published in patent US7816353B2 (Exelixis, Inc., priority 2003, dated 2010).
Like-named read-outs stand apart in the source and are kept apart here.

Experiments:
[1] = target: T1, p70S6K (Homo sapiens, UniProt P23443, T412E); experiment: p70S6 Kinase Assay (Luciferase-Coupled Chemiluminescent Kinase assay, LCCA); type: biochemical; conditions: 5 μM ATP
T1 construct: human p70S6 kinase domain residues 1-421, containing a T412E mutation; made in house
Outline: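 Luciferase-coupled chemiluminescence measured percent ATP remaining after the 2 h kinase reaction at ambient temperature, with ATP near the kinase's KM. Ten inhibitor concentrations were tested. IC50 was obtained from a Hill-equation fit.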

[2] = target: T2, Akt1 (Homo sapiens, UniProt P31749); experiment: Akt1 Kinase Assay (Luciferase-Coupled Chemiluminescent Kinase assay, LCCA); type: biochemical; conditions: human Akt1 kinase domain residues R144-A480, activated with PDK1; 1 μM ATP; read-out: Akt-1 IC50
T2 construct: made in house
T2 sequence (P31749 144-480): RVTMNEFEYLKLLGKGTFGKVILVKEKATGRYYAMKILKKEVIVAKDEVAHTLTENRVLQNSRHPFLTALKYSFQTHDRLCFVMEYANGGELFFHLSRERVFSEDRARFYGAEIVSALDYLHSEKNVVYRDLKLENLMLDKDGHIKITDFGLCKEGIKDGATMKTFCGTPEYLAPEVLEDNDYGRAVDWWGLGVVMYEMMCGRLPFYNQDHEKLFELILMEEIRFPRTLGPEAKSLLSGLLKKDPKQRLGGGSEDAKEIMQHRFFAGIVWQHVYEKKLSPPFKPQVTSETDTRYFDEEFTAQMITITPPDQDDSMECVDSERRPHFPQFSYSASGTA
Protocol: Kinase activity and compound inhibition are investigated using one or more of the three assay formats described below. The ATP concentrations for each assay are selected to be close to the Michaelis-Menten constant (KM) for each individual kinase. Dose-response experiments are performed at 10 different inhibitor concentrations in a 384-well plate format. The data are fitted to four-parameter equation (2) below; where Y is the observed signal, X is the inhibitor concentration, Min is the background signal in the absence of enzyme (0% enzyme activity), Max is the signal in the absence of inhibitor (100% enzyme activity), IC50 is the inhibitor concentration at 50% enzyme inhibition and H represents the empirical Hill's slope to measure the cooperativity. Typically H is close to unity. Y=Min+(Max−Min)/(1+(X/IC50)^H) Equation (2) p70S6 Kinase Assay
Biochemical activity of Akt1 kinase was assessed using a Luciferase-Coupled Chemiluminescent Kinase assay (LCCA) format. Kinase activity was measured as the percent ATP remaining following the kinase reaction. Remaining ATP was detected by luciferase-luciferin-coupled chemiluminescence. Specifically, the reaction was initiated by mixing test compounds, 1 μM ATP, 5 μM crosstide peptide and 1.3 nM Akt1 (baculovirus expressed human Akt1 kinase domain residues R144-A480, activated with PDK1) in a 20 uL assay buffer (20 mM Tris-HCL pH 7.5, 10 mM MgCl2, 0.01% Triton X-100, 1 mM DTT, 3 mM MnCl2). The mixture is incubated at ambient temperature for 3 hours after which 20 μL luciferase-luciferin mix is added and the chemiluminescent signal read using a Wallac Victor2 reader. The luciferase-luciferin mix consists of 50 mM HEPES, pH 7.8, 8.5 μg/mL oxalic acid (pH 7.8), 5 (or 50) mM DTT, 0.4% Triton X-100, 0.25 mg/mL coenzyme A, 63 uM AMP, 28 μg/mL luciferin and 40,000 units/mL luciferase.

[3] = human p70S6 kinase domain residues 1-421, T412E, read-out: p70S6K IC50

T1 sequence (P23443 1-421 T412E): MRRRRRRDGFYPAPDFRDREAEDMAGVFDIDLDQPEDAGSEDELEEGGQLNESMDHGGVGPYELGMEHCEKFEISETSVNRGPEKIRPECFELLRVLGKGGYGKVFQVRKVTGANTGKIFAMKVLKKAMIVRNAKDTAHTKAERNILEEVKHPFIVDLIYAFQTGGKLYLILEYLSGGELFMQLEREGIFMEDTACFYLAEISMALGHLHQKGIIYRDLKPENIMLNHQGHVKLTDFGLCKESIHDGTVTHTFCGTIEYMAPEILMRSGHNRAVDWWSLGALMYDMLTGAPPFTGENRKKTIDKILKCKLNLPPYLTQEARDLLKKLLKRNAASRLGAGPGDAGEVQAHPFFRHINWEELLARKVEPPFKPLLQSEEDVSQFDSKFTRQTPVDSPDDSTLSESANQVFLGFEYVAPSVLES

Row | SMILES | IC50 [1, 3] [µM] | IC50 [2] [µM] | IC50 ([1]; p70S6K IC50, human p70S6 kinase domain residues 1-421, T412E) [µM]
1 | COCCN(CCC[C@H](Nc1nc(N)nc(SC)c1C#N)C(=O)Nc1cccc(C(F)(F)F)c1)CCOC [Example 184, N~2~-[2-amino-5-cyano-6-(methylthio)pyrimidin-4-yl]-N~5~,N~5~-bis[2-(methyloxy)ethyl]-N-[3-(trifluoromethyl)phenyl]-L-ornithinamide] | > 2 |  | 
2 | CCOc1nc(N)nc(N[C@@H](C)C(=O)Nc2cccc(C(F)(F)F)c2)c1C#N [Example 88, N^2-[2-amino-5-cyano-6-(ethyloxy)pyrimidin-4-yl]-N-[3-(trifluoromethyl)phenyl]-L-alaninamide] | > 2 |  | 
3 | CC(C)Oc1nc(N)nc(N[C@@H](C)C(=O)Nc2cccc(C(F)(F)F)c2)c1C#N [Example 122, N^2-{2-amino-5-cyano-6-[(1-methylethyl)oxy]pyrimidin-4-yl}-N-[3-(trifluoromethyl)phenyl]-L-alaninamide] | > 2 |  | 
4 | CSc1nc(N)nc(N[C@@H](CCC(=O)OCc2ccccc2)C(=O)Nc2cccc(C(F)(F)F)c2)c1C#N [Example 182, phenylmethyl N~2~-[2-amino-5-cyano-6-(methylthio)pyrimidin-4-yl]-N-[3-(trifluoromethyl)phenyl]-L-alpha-glutaminate] | > 2 |  | 
5 | CSc1nc(N)nc(O[C@H](C)C(=O)Nc2cccc(C(F)(F)F)c2)c1C#N [Example 68, (2R)-2-{[2-amino-5-cyano-6-(methylthio)pyrimidin-4-yl]oxy}-N-[3-(trifluoromethyl)phenyl]propanamide] |  |  | 0.5 to 2
6 | N#Cc1cnc(N2CCOCC2)nc1NCC(=O)Nc1cccc(C(F)(F)F)c1 [Example 76] | > 2 |  | 
7 | CSc1nc(NC(C)=O)nc(N(C(C)=O)[C@@H](CCCNC(C)=O)C(=O)Nc2cccc(C(F)(F)F)c2)c1C#N [Example 166, N~2~,N~5~-diacetyl-N~2~-[2-(acetylamino)-5-cyano-6-(methylthio)pyrimidin-4-yl]-N-[3-(trifluoromethyl)phenyl]-L-ornithinamide] | > 2 |  | 
8 | CCCOc1nc(N)nc(N(C)[C@@H](C)C(=O)Nc2cccc(C(F)(F)F)c2)c1C#N [Example 120, N^2-[2-amino-5-cyano-6-(propyloxy)pyrimidin-4-yl]-N^2-methyl-N-[3-(trifluoromethyl)phenyl]-L-alaninamide] | > 2 |  | 
9 | CCOc1nc(N)nc(N[C@@H](CCC(=O)NN)C(=O)Nc2cccc(C(F)(F)F)c2)c1C#N [Example 177, ′2-(2-amino-5-cyano-6-ethoxy-pyrimidin-4-ylamino)-4-hydrazinocarbonyl-N-(3-trifluoromethyl-phenyl)-butyramide] | > 2 |  | 
10 | CSc1nc(N)nc(OC(C(=O)Nc2cccc(C(F)(F)F)c2)C(C)C)c1C#N (stereo in doubt) [Example 70, (2S)-2-{[2-amino-5-cyano-6-(methylthio)pyrimidin-4-yl]oxy}-3-methyl-N-[3-(trifluoromethyl)phenyl]butanamide] | > 2 |  | 
11 | C[C@H](Nc1nc(N)nc(N)c1C#N)C(=O)Nc1cccc(C(F)(F)F)c1 [Example 89, N^2-(2,6-diamino-5-cyanopyrimidin-4-yl)-N-[3-(trifluoromethyl)phenyl]-L-alaninamide] | > 2 |  | 
12 | CSc1nc(N)nc(N[C@@H](C)c2nc3ccc(C(F)(F)F)cc3[nH]2)c1C#N [Example 107, 2-amino-4-(methylthio)-6-({(1S)-1-[6-(trifluoromethyl)-1H-benzimidazol-2-yl]ethyl}amino)pyrimidine-5-carbonitrile] | > 2 |  | 

Further lines, with some results ahead:

Row | IC50 [1, 3] [µM] | IC50 [2] [µM] | SMILES | IC50 ([1]; p70S6K IC50, human p70S6 kinase domain residues 1-421, T412E) [µM]
13 | 0.5 to 2 | > 2 | CCOc1nc(N)nc(N[C@@H](CCCN)C(=O)Nc2cccc(C(F)(F)F)c2)c1C#N [Example 148, N~2~-[2-amino-5-cyano-6-(ethyloxy)pyrimidin-4-yl]-N-[3-(trifluoromethyl)phenyl]-L-omithinamide] | 
14 | > 2 | > 2 | CCOc1nc(N)nc(N(C)[C@@H](C)C(=O)Nc2cccc(OC(F)(F)F)c2)c1C#N [Example 172, N~2~-[2-amino-5-cyano-6-(ethyloxy)pyrimidin-4-yl]-N~2~-methyl-N-{3-[(trifluoromethyl)oxy]phenyl}-L-alaninamide] | 
15 | < 0.05 | > 2 | CSc1nc(N)nc(SCC(=O)Nc2nc3ccccc3s2)c1C#N [Example 23, 2-{[2-amino-5-cyano-6-(methylthio)pyrimidin-4-yl]thio}-N-1,3-benzothiazol-2-ylacetamide] | 
16 | 0.5 to 2 | > 2 | CSc1nc(N)nc(N[C@@H](CCCNC(N)=O)C(=O)Nc2cccc(C(F)(F)F)c2)c1C#N [Example 147, N~5~-(aminocarbonyl)-N~2~-[2-amino-5-cyano-6-(methylthio)pyrimidin-4-yl]-N-[3-(trifluoromethyl)phenyl]-L-omithinamide] | 
17 | 0.05 to 0.5 | > 2 | Nc1nc(Cl)c(C=O)c(SCC(=O)Nc2cccc(C(F)(F)F)c2)n1 [Example 43, 2-[(2-amino-6-chloro-5-formylpyrimidin-4-yl)thio]-N-[3-(trifluoromethyl)phenyl]acetamide] | 
18 | > 2 | > 2 | CCOc1nc(N)nc(N[C@@H](C)C(=O)Nc2cc(C(=O)NCCN(C)C)cc(C(F)(F)F)c2)c1C#N [Example 160, 3-({N-[2-amino-5-cyano-6-(ethyloxy)pyrimidin-4-yl]-L-alanyl}amino)-N-[2-(dimethylamino)ethyl]-5-(trifluoromethyl)benzamide] | 
19 | > 2 | > 2 | CSc1nc(N)nc(N(CC(=O)Nc2cccc(C(F)(F)F)c2)CC2CCOCC2)c1C#N [Example 101, N^2-[2-amino-5-cyano-6-(methylthio)pyrimidin-4-yl]-N^2-(tetrahydro-2H-pyran-4-ylmethyl)-N-[3-(trifluoromethyl)phenyl]glycinamide] | 
20 | 0.05 to 0.5 | > 2 | Nc1nc(Cl)cc(SCC(=O)Nc2cccc(C(F)(F)F)c2)n1 | 
21 | 0.05 to 0.5 |  | Nc1nc(Cl)c(C=O)c(OCC(=O)Nc2cccc(C(F)(F)F)c2)n1 [Example 50, 2-[(2-amino-6-chloro-5-formylpyrimidin-4-yl)oxy]-N-[3-(trifluoromethyl)phenyl]acetamide] | 
22 | 0.5 to 2 |  | CN(C)c1nc(N)nc(SCC(=O)Nc2cccc(C(F)(F)F)c2)c1C#N [Example 66, 2-{[2-amino-5-cyano-6-(dimethylamino)pyrimidin-4-yl]thio}-N-[3-(trifluoromethyl)phenyl]acetamide] | 
23 | > 2 |  | CSc1nc(N)nc(N[C@@H](CCCN/C(N)=N/[N+](=O)[O-])C(=O)Nc2cccc(C(F)(F)F)c2)c1C#N [Example 111, N^2-[2-amino-5-cyano-6-(methylthio)pyrimidin-4-yl]-N^5-[imino(nitroamino)methyl]-N-[3-(trifluoromethyl)phenyl]-L-omithinamide] | 
24 | > 2 |  | Cc1nc2oc(C(=O)Nc3cccc(C(F)(F)F)c3)c(N)c2c(C)c1N [Example 97, 3,5-diamino-4,6-dimethyl-N-[3-(trifluoromethyl)phenyl]furo[2,3-b]pyridine-2-carboxamide] | 
25 | > 2 |  | CSc1nc(N)nc(N(C)N(C)C(=O)Nc2cccc(C(F)(F)F)c2)c1C#N [Example 93, 2-[2-amino-5-cyano-6-(methylthio)pyrimidin-4-yl]-1,2-dimethyl-N-[3-(trifluoromethyl)phenyl]hydrazinecarboxamide] | 
26 | > 2 |  | CSc1nc(N)nc(NC2(C(=O)Nc3cccc(C(F)(F)F)c3)CC2)c1C#N [Example 73, 1-{[2-amino-5-cyno-6-(methylthio)pyrimidin-4-yl]amino}-N-[3-(trifluoromethyl)phenyl]cyclopropanecarboxamide] | 
27 | 0.5 to 2 |  | COCCNCCC[C@H](Nc1nc(N)nc(SC)c1C#N)C(=O)Nc1cccc(C(F)(F)F)c1 [Example 144, N~2~-[2-amino-5-cyano-6-(methylthio)pyrimidin-4-yl]-N~5~-[2-(methyloxy)ethyl]-N-[3-(trifluoromethyl)phenyl]-L-omithinamide] | 
28 | 0.5 to 2 |  | CSc1nc(N)nc(NCC(=O)Nc2cccc(C(F)(F)F)c2)c1/C=N/O [Example 59, N^2-[2-amino-5-[(E)-(hydroxymino)methyl]-6-(methylthio)pyrimidin-4-yl]-N-[3-(trifluoromethyl)phenyl]glycinamide] | 
29 | 0.5 to 2 |  | CSc1nc(N)nc(N2CCC[C@H]2C(=O)Nc2cccc(C(F)(F)F)c2)c1C#N [Example 67, (S)-1-[2-amino-5-cyano-6-(methythio)pyrimidin-4-yl]-N-[3-(trifluoromethyl)phenyl]prolinamide] | 
